These results are taken from ChEMBL document CHEMBL1128792, “Aromatic amino acid phosphoramidate di- and triesters of 3-azido-3-deoxythymidine (AZT) are non-toxic inhibitors of HIV-1 replication” (Bioorg Med Chem Lett, 1995).

In assay [1] the test system is CCRF-CEM. Briefly: Cytotoxic concentration towards CEM cells. It is filed as functional. As to conditions: Homo sapiens.
Assay [2] in a line: Cytotoxic concentration towards peripheral blood mononuclear cells. The format is functional. As to conditions: Homo sapiens.
The target of assay [3] is Human immunodeficiency virus type 1 reverse transcriptase (Human immunodeficiency virus 1, UniProt Q72547). In words: Tested for the inhibition towards HIV-reverse transcriptase.
Assay [4] can be described thus: Effective molar concentration required to inhibit the replication of HIV-1 in human peripheral blood mononuclear cells by 50% (PBMC) was determined. It is filed as functional.

A value given as a limit tells only on which side of the number the result lay.

For orientation: CC50 means the concentration that lowers cell viability or growth by half. Read a low CC50 as greater toxicity to the cells. The IC50 is the concentration needed to halve the response being measured. The term EC50 denotes the concentration at which the effect is half-maximal. Low readings indicate a more potent agent, high ones a less potent agent. In the case of `COC(=O)[C@H](Cc1c[nH]c2ccccc12)NP(=O)(O)OC[C@H]1O[C@@H](n2cc(C)c(=O)[nH]c2=O)C[C@@H]1N=[N+]=[N-]`, the half-maximal cytotoxic concentration (CC50) in assay [1] and in assay [2] was > 100 µM throughout. The IC50 in assay [3] was > 100 µM. Also, in assay [4], the EC50 was found to be 0.01 µM.
On to `COC(=O)[C@H](Cc1ccccc1)NP(=O)(O)OCC1OC(n2cc(C)c(=O)[nH]c2=O)CC1N=[N+]=[N-]` (stereo partly specified), for which the CC50 in assay [1] and in assay [2] was > 100 µM each time. For the same compound, the IC50 in assay [3] was > 100 µM. In assay [4], the response was half-maximal at 0.6 µM (EC50).
As to `COC(=O)[C@H](Cc1c[nH]c2ccccc12)NP(=O)(OCCC#N)OCC1OC(n2cc(C)c(=O)[nH]c2=O)CC1N=[N+]=[N-]` (stereo partly specified), the CC50 in assay [1] and in assay [2] was > 100 µM throughout. Further, in assay [3], the IC50 was > 100 µM. In assay [4], this compound gave an EC50 of 0.4 µM.
`COC(=O)[C@H](Cc1ccccc1)NP(=O)(OCCC#N)OCC1OC(n2cc(C)c(=O)[nH]c2=O)CC1N=[N+]=[N-]` (stereo partly specified): the CC50 in assay [1] and in assay [2] was > 100 µM in each case. Also, the half-maximal inhibitory concentration (IC50) in assay [3] was > 100 µM. Moreover, the EC50 in assay [4] was > 1 µM.
In the case of `COC(=O)[C@H](Cc1ccccc1)NP(=O)(OC)OCC1OC(n2cc(C)c(=O)[nH]c2=O)CC1N=[N+]=[N-]` (stereo partly specified), the CC50 in assay [1] was > 50 µM; in assay [2], > 100 µM. The compound also had an EC50 in assay [4] of 0.09 µM.
The matching figures for `COC(=O)[C@H](Cc1c[nH]c2ccccc12)NP(=O)(OC)OCC1OC(n2cc(C)c(=O)[nH]c2=O)CC1N=[N+]=[N-]` (stereo partly specified): > 50 µM, > 50 µM and 0.3 µM.
With `Cc1cn([C@H]2C[C@H](N=[N+]=[N-])[C@@H](CO)O2)c(=O)[nH]c1=O` [ZIDOVUDINE], the CC50 in assay [1] is 14.3 µM; in assay [2] it was > 100 µM. In assay [3], it took 0.01 µM to reach half-maximal inhibition (IC50). Moreover, it took 0.08 µM to reach a half-maximal effect in assay [4] (EC50).
